# Entries after “also recorded” stand apart in the source; their conditions may differ. No end group written: not given here.
# Tested on: Jurkat T cells
# Assay: hGal-7-induced apoptosis of Jurkat T cells, PARP-1 cleavage (Western blot)
# Format: cell-based
# Details: hGal-7 pre-incubated with peptide, then Jurkat cells 4 h at 37°C, serum-free RPMI, Supplementary Fig. S3: peptide 200 μM
# Description: Apoptosis was measured by Western blot analysis of PARP-1 cleavage. The PACAP28–38 was used as a control. β-actin was used as a loading control. B. Flow cytometric analysis of Jurkat T cells with stained Annexin V (FL1) and propidium iodide-PI (FL3) following binding of recombinant hGal-7 with or without hGal-7(129–135). Cells in the lower right quadrant are representative of annexin V-positive/PI-negative, or early apoptotic cells. Cells in the upper right quadrant indicate annexin V-positive/PI-positive, or late apoptotic cells. C. Histogram showing the percentages of annexin V-positive Jurkat T cells obtained by adding the percentages of cells found in the lower and upper right quadrants. Results are representative of three independent experiments. Error bars represent standard deviation.
# For the apoptosis tests, whole-cell extracts were homogenized and resuspended in RIPA buffer (Thermo Fisher Scientific, Rockford, IL, USA) containing protease inhibitors (Roche, Laval, QC, Canada). Equal amounts of whole-cell extracts (25 μg) were separated on SDS-PAGE and transferred onto nitrocellulose membranes (Bio-Rad Laboratories). The membranes were first blocked with 5% milk [w/v] in TBS/0.5% Tween 20 [v/v] for 1 h at room temperature and subsequently blotted overnight in a solution of TBS containing 3% BSA [w/v] and 0.5% Tween 20 [v/v]. The following antibodies were used: a rabbit anti-poly-(ADP-ribose) polymerase (PARP)-1 (p25) polyclonal antibody (1:5000; Epitomics, Burlingame, CA, USA) and a mouse anti-β-actin (1:10000; Sigma-Aldrich, St. Louis, MO, USA). Secondary antibodies consisted of horseradish peroxidase-conjugated donkey anti-rabbit (GE Healthcare, Buckinghamshire, England) and sheep anti-mouse (GE Healthcare) IgG. Detection was performed using the enhanced chemiluminescence method (GE Healthcare). […]
# concentrations of recombinant human gaI-7 were pre-incubated with the hGaI-7129–135 (200 μM) prior to its addition to A. Jurkat T cells or B. PBMCs. Apoptosis wa, measured after 4 h at 37°C in serum·free conditions. […]
Substance,inhibition of hGal-7-induced apoptosis in Jurkat T cells (PARP-1 cleavage),inhibition of hGal-7-induced apoptosis in Jurkat T cells (PARP-1 cleavage) (listed as hGaI-7129–135)
"H-LDSVRIP-NH2 [hGal-7(129–135), peptide corresponding to hGal-7 segment between residues 129–135]",inhibited the ability of hGal-7 to induce apoptosis in Jurkat T cells; also recorded: dose-dependent,decreases gaI-7-induced apoptosis
"PACAP(28–38): an inactive fragment of the human Pituitary Adenylate Cyclase-Activating Polypeptide (PACAP) (GKRYKQRVKNK-NH2; ends and bridges not checked; UniProt P18509 159-169, looked up, fragment)",No such effect was observed with the control peptide,–

# Reference: article PMC4747383, “Design of a peptidic inhibitor that targets the dimer interface of a prototypic galectin” (Oncotarget, 2015)
